Data published in US6653478B2, “Substituted benzimidazol-2-ones as vasopressin receptor antagonists and neuropeptide Y modulators” (Ortho-McNeil Pharmaceutical, Inc., priority 2000, dated 2003).
Where “and” joins values, the source holds several entries; their conditions need not be identical. Equal values may be shown once.

Assays:
NPY2 receptors = target: T1, NPY2 receptors (Homo sapiens, UniProt P49146); experiment: Neuropeptide Y receptor binding assay (125I-PYY, KAN-TS cell membranes); details: 10 μM compound; read-out: NPY-2@10, % Inh
T1 construct: Cell Membranes from KAN-TS cells having NPY2 receptors; endogenous in cells; host or cells: KAN-TS cells (membranes)
T1 sequence (P49146 1-381): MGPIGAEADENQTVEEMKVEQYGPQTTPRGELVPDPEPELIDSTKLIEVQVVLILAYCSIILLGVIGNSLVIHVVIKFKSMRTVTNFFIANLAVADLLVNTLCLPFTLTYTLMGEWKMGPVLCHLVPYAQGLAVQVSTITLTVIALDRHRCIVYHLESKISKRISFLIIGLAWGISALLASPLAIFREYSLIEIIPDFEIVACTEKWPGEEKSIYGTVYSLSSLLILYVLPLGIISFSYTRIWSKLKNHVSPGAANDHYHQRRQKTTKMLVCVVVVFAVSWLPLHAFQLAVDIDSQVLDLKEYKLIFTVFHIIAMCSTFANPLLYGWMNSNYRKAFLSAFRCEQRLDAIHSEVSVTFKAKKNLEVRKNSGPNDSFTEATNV
Procedure, shortened: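 Membranes from KAN-TS cells competed with 125I-PYY in binding buffer containing BSA, test compound at 10 μM final, 1 hr at room temperature. Nonspecific binding defined with 1 μM PYY final. Tubes centrifuged, washed with PBS and bound radioactivity gamma-counted.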

human V1a receptor = human V1a receptor (Homo sapiens, UniProt P37288); experiment: V1a binding assay (3H-AVP displacement, HEK-293 membranes); parameters: expressed in transfected cells; host or cells: HEK-293 (membranes); details: for inhibition at 1 µM: 1.0 μM compound, read-out: V1a@1.0, % Inh
Procedure, shortened: (§1)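 Read-out is filter-retained 3H-AVP, counted by scintillation after washing with cold saline/0.05% Tween 20. Binding ran 1 hour at room temperature in pH 7.5 buffer with protease inhibitors; 1.25 μM unlabelled AVP gave non-specific binding.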

human V1b receptor = target: T2, human V1b receptor (Homo sapiens, UniProt P47901); experiment: V1b binding assay (3H-AVP displacement, HEK-293 membranes); parameters: expressed in transfected cells; host or cells: HEK-293 (membranes); details: for inhibition at 1 µM: 1.0 μM compound, read-out: V1b@1.0, % Inh
T2 sequence (P47901 1-424): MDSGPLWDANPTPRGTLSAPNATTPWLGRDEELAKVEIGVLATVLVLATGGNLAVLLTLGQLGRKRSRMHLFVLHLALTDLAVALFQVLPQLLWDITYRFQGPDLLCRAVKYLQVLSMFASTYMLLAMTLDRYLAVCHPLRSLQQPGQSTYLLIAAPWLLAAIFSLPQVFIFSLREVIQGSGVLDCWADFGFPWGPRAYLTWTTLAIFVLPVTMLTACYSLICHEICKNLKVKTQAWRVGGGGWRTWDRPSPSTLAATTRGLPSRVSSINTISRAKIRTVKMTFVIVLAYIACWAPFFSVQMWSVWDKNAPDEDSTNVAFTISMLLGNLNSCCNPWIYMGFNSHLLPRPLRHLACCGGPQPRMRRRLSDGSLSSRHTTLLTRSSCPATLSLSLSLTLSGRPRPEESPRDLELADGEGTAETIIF
Procedure, shortened: as §1

human V2 receptor = human V2 receptor (Homo sapiens, UniProt P30518); experiment: V2 binding assay (3H-AVP displacement, HEK-293 membranes); parameters: expressed in transfected cells; host or cells: HEK-293 (membranes); details: 1.0 μM compound; read-out: V2@1.0, % Inh
Procedure, shortened: as §1

human V2 receptor, sequence (P30518 whole entry): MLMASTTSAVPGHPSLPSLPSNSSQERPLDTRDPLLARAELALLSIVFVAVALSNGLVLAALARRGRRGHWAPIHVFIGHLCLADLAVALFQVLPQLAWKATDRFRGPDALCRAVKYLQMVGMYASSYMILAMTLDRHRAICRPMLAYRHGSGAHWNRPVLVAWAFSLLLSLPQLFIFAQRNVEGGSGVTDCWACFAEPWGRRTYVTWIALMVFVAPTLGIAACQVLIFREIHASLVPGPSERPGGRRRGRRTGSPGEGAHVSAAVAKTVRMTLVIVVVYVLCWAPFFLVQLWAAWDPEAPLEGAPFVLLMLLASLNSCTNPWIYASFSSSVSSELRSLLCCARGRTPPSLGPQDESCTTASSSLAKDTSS
human V1a receptor, sequence (P37288 whole entry): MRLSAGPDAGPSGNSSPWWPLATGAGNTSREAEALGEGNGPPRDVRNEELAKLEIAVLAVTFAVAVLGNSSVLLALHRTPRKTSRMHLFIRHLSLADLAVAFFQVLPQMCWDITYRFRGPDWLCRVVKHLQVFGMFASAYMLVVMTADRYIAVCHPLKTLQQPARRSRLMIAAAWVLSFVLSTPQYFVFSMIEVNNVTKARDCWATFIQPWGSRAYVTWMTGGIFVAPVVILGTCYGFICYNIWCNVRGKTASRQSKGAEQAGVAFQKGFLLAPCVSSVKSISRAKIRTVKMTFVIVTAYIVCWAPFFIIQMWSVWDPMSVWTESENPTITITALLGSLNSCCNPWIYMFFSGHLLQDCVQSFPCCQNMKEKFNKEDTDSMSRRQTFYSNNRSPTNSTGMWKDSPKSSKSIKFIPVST

In the case of `O=C(NCc1ccccc1F)N1CCC(n2c(=O)n(CCCN3CCCC3)c3ccccc32)CC1` [Compound 89], the inhibition at 10 µM (NPY2 receptors) is reported as 8%, the inhibition at 1 µM (human V1a receptor) is reported as 34% and the inhibition at 1 µM (human V1b receptor) is reported as 10%. The inhibition at 1 µM (human V2 receptor) was 0%.
With `CCN(CC)CCn1c(=O)n(C2CCN(C(=S)NCc3ccccc3-c3ccccc3)CC2)c2ccccc21` [Compound 90, 1-(N1-Piperidinocarbothioyl-(2-phenylbenzylamino)-4-yl)-3-(2-diethyaminoethyl)benzimidazol-2-one] the inhibition at 10 µM (NPY2 receptors) was 13%, the IC50 (human V1a receptor) was 0.062 µM and the inhibition at 1 µM (human V1b receptor) was 27%. For the same molecule, the inhibition at 1 µM (human V2 receptor) was 5%.
Molecule `CCN(CC)CCn1c(=O)n(C2CCN(C(=O)NC(c3ccccc3)c3ccccc3)CC2)c2ccccc21` [Compound 91, 1-(N1-Piperidinocarbonyldiphenylmethylamino-4-yl)-3-(2-N,N-diethyaminoethyl)benzimidazol-2-one] has an inhibition at 10 µM (NPY2 receptors) of 56%, an inhibition at 1 µM (human V1a receptor) of 64% and an inhibition at 1 µM (human V1b receptor) of 24%. It also gave an inhibition at 1 µM (human V2 receptor) of 0%.
In the case of `CCN(CC)CCn1c(=O)n(C2CCN(C(=O)Nc3ccccc3C)CC2)c2ccccc21` [Compound 92, 1-[(N1-Piperidinocarbonyl-2-methylphenylamino)-4-yl]-3-(2-N,Ndiethylaminoethyl)-1,3-dihydrobenzimidazol-2-one], the inhibition at 10 µM (NPY2 receptors) is reported as 0%, the inhibition at 1 µM (human V1a receptor) is reported as 3% and the inhibition at 1 µM (human V1b receptor) is reported as 5%. For the same molecule, the inhibition at 1 µM (human V2 receptor) was 3%.
Molecule `CN1CCCC1CCn1c(=O)n(C2CCN(C(=S)NC(c3ccccc3)c3ccccc3)CC2)c2ccccc21` (centres unmarked) [Compound 93] has an inhibition at 10 µM (NPY2 receptors) of 17%, an IC50 (human V1a receptor) of 0.049 µM and an inhibition at 1 µM (human V1b receptor) of 48%. For the same molecule, the inhibition at 1 µM (human V2 receptor) was 0%.
`CN1CCCC1CCn1c(=O)n(C2CCN(C(=O)NC(c3ccccc3)c3ccccc3)CC2)c2ccccc21` (centres unmarked) [Compound 94] showed an inhibition at 10 µM (NPY2 receptors) of 78%, an inhibition at 1 µM (human V1a receptor) of 68% and an inhibition at 1 µM (human V1b receptor) of 33%. It also gave an inhibition at 1 µM (human V2 receptor) of 8%.
In the case of `O=C(NC(c1ccccc1)c1ccccc1)N1CCC(n2c(=O)n(CCCN3CCOCC3)c3ccccc32)CC1` [Compound 95, 1-[(N1-piperidinocarbonylbiphenylmethylamino)-4-yl]-3-(3-morpholinopropyl)-1,3-dihydrobenzimidazol-2-one], the inhibition at 10 µM (NPY2 receptors) is reported as 0%, the IC50 (human V1a receptor) is reported as 0.162 µM and the inhibition at 1 µM (human V1b receptor) is reported as 23%. It also gave an inhibition at 1 µM (human V2 receptor) of 2%.
With `O=C(NC(c1ccccc1)c1ccccc1)N1CCC(n2c(=O)n(CCCN3CCCC3)c3ccccc32)CC1` [Compound 96, 1-[(N1-piperidinocarbonyldiphenylmethylamino)-4-yl]-3-(3-N-pyrrolidinylpropyl)-1,3-dihydrobenzimidazol-2-one] the inhibition at 10 µM (NPY2 receptors) was 20%, the IC50 (human V1a receptor) was 0.079 µM and the inhibition at 1 µM (human V1b receptor) was 43%. The inhibition at 1 µM (human V2 receptor) was 0%.
`O=C(NC(c1ccccc1)c1ccccc1)N1CCC(n2c(=O)n(CCCN3CCCCC3)c3ccccc32)CC1` [Compound 97, 1-[(N1-piperidinocarbonylbiphenylmethylamino)-4-yl]-3-(3-N-piperidinylpropyl)-1,3-dihydrobenzimidazol-2-one] gave an inhibition at 10 µM (NPY2 receptors) of 14%, an IC50 (human V1a receptor) of 0.034 µM and an inhibition at 1 µM (human V1b receptor) of 35%. For the same molecule, the inhibition at 1 µM (human V2 receptor) was 0%.
With `CN(CCCn1c(=O)n(C2CCN(C(=S)NC(c3ccccc3)c3ccccc3)CC2)c2ccccc21)C1CCCCC1` [Compound 98, 1-[(N1-piperidinocarbothioylbiphenylmethylamino)-4-yl]-3-(3-N,N-methylcyclohexylaminopropyl)-1,3-dihydrobenzimidazol-2-one] the inhibition at 10 µM (NPY2 receptors) was 85%, the IC50 (human V1a receptor) was 0.022 µM and the IC50 (human V1b receptor) was 0.179 µM. It also gave an inhibition at 1 µM (human V2 receptor) of 0%.
`CC1CCN(CCCn2c(=O)n(C3CCN(C(=O)NC(c4ccccc4)c4ccccc4)CC3)c3ccccc32)CC1` [Compound 99, 1-[(N1-piperidinocarbonylbiphenylmethylamino)-4-yl]-3-(4-methylpiperidin-1-yl-propyl)-1,3-dihydrobenzimidazol-2-one] gave an inhibition at 10 µM (NPY2 receptors) of 29%, an IC50 (human V1a receptor) of 0.126 µM and an inhibition at 1 µM (human V1b receptor) of 46%. The inhibition at 1 µM (human V2 receptor) was 16%.
Work on `CN1CCN(CCCn2c(=O)n(C3CCN(C(=O)NC(c4ccccc4)c4ccccc4)CC3)c3ccccc32)CC1` [Compound 100, 1-[(N1-piperidinocarbonylbiphenylmethylamino)-4-yl]-3-(3-N-(N-Methylpiperazino)propyl)-1,3-dihydrobenzimidazol-2-one] yielded an inhibition at 10 µM (NPY2 receptors) of 6%, an IC50 (human V1a receptor) of 0.283 µM and an inhibition at 1 µM (human V1b receptor) of 36%. It also gave an inhibition at 1 µM (human V2 receptor) of 24%.
Work on `CC1CC(C)CN(CCCn2c(=O)n(C3CCN(C(=O)NC(c4ccccc4)c4ccccc4)CC3)c3ccccc32)C1` (centres unmarked) [Compound 101] yielded an inhibition at 10 µM (NPY2 receptors) of 21%, an IC50 (human V1a receptor) of 0.014 µM and an inhibition at 1 µM (human V1b receptor) of 43%. The inhibition at 1 µM (human V2 receptor) was 0%.
`O=C(NC(c1ccccc1)c1ccccc1)N1CCC(n2c(=O)n(CCCN3CC=CC3)c3ccccc32)CC1` [Compound 102] was tested, and the inhibition at 10 µM (NPY2 receptors) was 23%, the IC50 (human V1a receptor) was 0.123 µM and the inhibition at 1 µM (human V1b receptor) was 41%. It also gave an inhibition at 1 µM (human V2 receptor) of 6%.
For `O=c1n(CCCCN2CCCC2)c2ccccc2n1C1CCN(C(=S)NC(c2ccccc2)c2ccccc2)CC1` [Compound 104], the inhibition at 10 µM (NPY2 receptors) was 96%, the IC50 (human V1a receptor) was 0.018 µM and the inhibition at 1 µM (human V1b receptor) was 48%. It also gave an inhibition at 1 µM (human V2 receptor) of 14%.
`O=c1n(CCCN2CCCCC2)c2ccccc2n1C1CCN(C(=S)NCc2ccccc2)CC1` [Compound 105, 1-[(N1-piperidinocarbothioylbenzylamino)-4-yl]-3-(3-N-piperidinylpropyl)-1,3-dihydrobenzimidazol-2-one] was tested, and the inhibition at 10 µM (NPY2 receptors) was 12%, the IC50 (human V1a receptor) was 0.188 µM and the inhibition at 1 µM (human V1a receptor) was 58%. For the same molecule, the inhibition at 1 µM (human V1b receptor) was 30% and the inhibition at 1 µM (human V2 receptor) was 0%.
With `O=C(NCc1ccccc1)N1CCC(n2c(=O)n(CCCN3CCCCC3)c3ccccc32)CC1` [Compound 106, 1-[(N1-piperidinocarbonybenzylamino)-4-yl]-3-(3-N-piperidinylpropyl)-1,3-dihydrobenzimidazol-2-one] the inhibition at 10 µM (NPY2 receptors) was 0%, the inhibition at 1 µM (human V1a receptor) was 56% and the inhibition at 1 µM (human V1b receptor) was 32%. The inhibition at 1 µM (human V2 receptor) was 2%.
`O=c1n(CCCCN2CCCCC2)c2ccccc2n1C1CCN(C(=S)NC(c2ccccc2)c2ccccc2)CC1` [Compound 107] was tested, and the inhibition at 10 µM (NPY2 receptors) was 95%, the IC50 (human V1a receptor) was 0.022 µM and the inhibition at 1 µM (human V1b receptor) was 45%. It also gave an inhibition at 1 µM (human V2 receptor) of 12%.
`O=c1n(CCCO)c2ccccc2n1C1CCN(C(=S)NC(c2ccccc2)c2ccccc2)CC1` [Compound 108, 1-[(N1-piperidinocarbothioylbiphenylmethylamino)-4-yl]-3-(3-hydroxypropyl)-1,3-dihydrobenzimidazol-2-one] showed an inhibition at 10 µM (NPY2 receptors) of 41%, an IC50 (human V1a receptor) of 0.579 µM and an inhibition at 1 µM (human V1b receptor) of 37%. It also gave an inhibition at 1 µM (human V2 receptor) of 16%.
Molecule `Cc1ccccc1NC(=S)N1CCC(n2c(=O)n(CCCN3CCCCC3)c3ccccc32)CC1` [Compound 109, 1-[(N1-piperidinocarbothioyl-2-methylphenylamino)-4-yl]-3-(3-N-piperidinylpropyl)-1,3-dihydrobenzimidazol-2-one] has an inhibition at 10 µM (NPY2 receptors) of 58%, an IC50 (human V1a receptor) of 0.056 µM and an inhibition at 1 µM (human V1b receptor) of 14%. The inhibition at 1 µM (human V2 receptor) was 0%.
For `Cc1ccccc1NC(=O)N1CCC(n2c(=O)n(CCCN3CCCCC3)c3ccccc32)CC1` [Compound 110, 1-[(N1-piperidinocarbonyl-2-methylphenylamino)-4-yl]-3-(3-N-piperidinylpropyl)-1,3-dihydrobenzimidazol-2-one], the inhibition at 10 µM (NPY2 receptors) was 0%, the inhibition at 1 µM (human V1a receptor) was 41% and the inhibition at 1 µM (human V1b receptor) was 19%. For the same molecule, the inhibition at 1 µM (human V2 receptor) was 2%.
`COc1ccccc1CNC(=S)N1CCC(n2c(=O)n(CCCN3CCCCC3)c3ccccc32)CC1` [Compound 111, 1-[(N1-piperidinocarbothioyl-2-methoxybenzylamino)-4-yl]-3-(3-N-piperidinylpropyl)-1,3-dihydrobenzimidazol-2-one] was tested, and the inhibition at 10 µM (NPY2 receptors) was 31%, the IC50 (human V1a receptor) was 0.109 µM and 0.056 µM and the inhibition at 1 µM (human V1b receptor) was 30%. The inhibition at 1 µM (human V2 receptor) was 0%.
